pIC50: −log10 of the molar value.
Experiments:
Ba/F3 ERBB2 YVMA = Ba/F3 ERBB2 YVMA (Homo sapiens, UniProt P04626, DUP772-775, cells depend on it); test: Cell viability assay (CellTiter Glo) in Ba/F3 cells engineered to express ERBB2 YVMA; type: cell-based, mouse; settings: Ba/F3 cells expressing human ERBB2 YVMA mutant, 72 hours, % viability, read-out: Ba/F3 ERBB2 YVMA IC50
Outline: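 IL-3-independent mouse Ba/F3 line stably transduced with human ERBB2 YVMA, seeded at 3000 cells/well, exposed to serially diluted compound (≤0.1% DMSO) for 72 h at 37° C. ATP read by CellTiter Glo luminescence, normalised to DMSO and media-only controls; sigmoidal nonlinear regression fit.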

[1] = biological target: T1, phosphorylated ERBB2 (pERBB2) (Homo sapiens, UniProt P04626); test: Detection of phosphorylated ERBB2 (pERBB2) by ELISA in BT-474 cells; type: cell-based; settings: four hour incubation with compound
T1 construct: endogenous in cells; host or cells: BT-474
Outline: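 BT-474 cells treated 4 h at 37 °C, 5% CO2 with four-fold dilutions (10 μM to 0.01 nM final). Lysates analysed by ELISA for pERBB2, TMB read at OD 450 nm. % relative activity normalised to no-cell (low) and 0.1% DMSO-treated (high) controls.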

[2] = biological target: T2, phosphorylated EGFR (pEGFR) (Homo sapiens, UniProt P00533); test: Detection of phosphorylated EGFR (pEGFR) in EGF-stimulated A431 cells (AlphaLISA); type: cell-based; settings: A431 cells (10% FBS), 4 hours incubation, EGF 30 ng/mL for 10 minutes
T2 construct: performed to measure phosphorylated EGFR levels using A431 cells; endogenous in cells; host or cells: A431
Outline: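 Cells in 10% FBS treated with compound 4 h at 37° C., then stimulated 10 min with 30 ng/mL EGF, lysed, and pEGFR measured by AlphaLISA. Inhibition normalized to DMSO and staurosporine controls; IC50 from four-parameter logistic fit.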

T1 sequence (P04626 23-1255): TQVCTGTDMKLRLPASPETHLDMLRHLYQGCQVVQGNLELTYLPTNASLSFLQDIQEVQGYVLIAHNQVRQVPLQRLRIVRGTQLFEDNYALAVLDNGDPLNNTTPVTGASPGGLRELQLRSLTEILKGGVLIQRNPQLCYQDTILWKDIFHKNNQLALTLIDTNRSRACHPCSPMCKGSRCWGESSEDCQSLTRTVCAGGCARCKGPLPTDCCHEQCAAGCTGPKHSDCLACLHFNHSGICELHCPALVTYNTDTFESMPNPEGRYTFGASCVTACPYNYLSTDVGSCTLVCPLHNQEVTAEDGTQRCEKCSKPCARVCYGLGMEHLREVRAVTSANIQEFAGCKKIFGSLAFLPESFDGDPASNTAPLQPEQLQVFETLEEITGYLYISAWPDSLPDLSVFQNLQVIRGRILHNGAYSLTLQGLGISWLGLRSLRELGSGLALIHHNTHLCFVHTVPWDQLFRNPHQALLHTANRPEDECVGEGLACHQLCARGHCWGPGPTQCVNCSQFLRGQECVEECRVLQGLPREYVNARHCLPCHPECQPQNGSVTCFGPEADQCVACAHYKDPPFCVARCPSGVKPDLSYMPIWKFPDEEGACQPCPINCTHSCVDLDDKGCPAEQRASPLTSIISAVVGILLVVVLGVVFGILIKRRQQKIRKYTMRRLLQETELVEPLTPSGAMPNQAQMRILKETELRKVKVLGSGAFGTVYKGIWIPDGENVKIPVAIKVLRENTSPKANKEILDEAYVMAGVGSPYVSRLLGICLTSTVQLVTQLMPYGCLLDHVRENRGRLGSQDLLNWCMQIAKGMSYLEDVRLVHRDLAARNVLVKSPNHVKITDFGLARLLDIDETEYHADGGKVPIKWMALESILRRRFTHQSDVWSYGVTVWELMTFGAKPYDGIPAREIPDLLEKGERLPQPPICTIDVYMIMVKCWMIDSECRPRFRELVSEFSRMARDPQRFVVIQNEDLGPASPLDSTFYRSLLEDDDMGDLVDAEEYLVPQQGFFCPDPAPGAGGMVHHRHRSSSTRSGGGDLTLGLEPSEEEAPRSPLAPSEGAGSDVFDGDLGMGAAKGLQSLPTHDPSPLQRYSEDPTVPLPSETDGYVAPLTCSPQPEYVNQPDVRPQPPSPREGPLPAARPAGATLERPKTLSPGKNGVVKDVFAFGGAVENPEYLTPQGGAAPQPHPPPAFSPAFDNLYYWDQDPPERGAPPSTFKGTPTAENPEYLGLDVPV
T2 sequence (P00533 25-1210): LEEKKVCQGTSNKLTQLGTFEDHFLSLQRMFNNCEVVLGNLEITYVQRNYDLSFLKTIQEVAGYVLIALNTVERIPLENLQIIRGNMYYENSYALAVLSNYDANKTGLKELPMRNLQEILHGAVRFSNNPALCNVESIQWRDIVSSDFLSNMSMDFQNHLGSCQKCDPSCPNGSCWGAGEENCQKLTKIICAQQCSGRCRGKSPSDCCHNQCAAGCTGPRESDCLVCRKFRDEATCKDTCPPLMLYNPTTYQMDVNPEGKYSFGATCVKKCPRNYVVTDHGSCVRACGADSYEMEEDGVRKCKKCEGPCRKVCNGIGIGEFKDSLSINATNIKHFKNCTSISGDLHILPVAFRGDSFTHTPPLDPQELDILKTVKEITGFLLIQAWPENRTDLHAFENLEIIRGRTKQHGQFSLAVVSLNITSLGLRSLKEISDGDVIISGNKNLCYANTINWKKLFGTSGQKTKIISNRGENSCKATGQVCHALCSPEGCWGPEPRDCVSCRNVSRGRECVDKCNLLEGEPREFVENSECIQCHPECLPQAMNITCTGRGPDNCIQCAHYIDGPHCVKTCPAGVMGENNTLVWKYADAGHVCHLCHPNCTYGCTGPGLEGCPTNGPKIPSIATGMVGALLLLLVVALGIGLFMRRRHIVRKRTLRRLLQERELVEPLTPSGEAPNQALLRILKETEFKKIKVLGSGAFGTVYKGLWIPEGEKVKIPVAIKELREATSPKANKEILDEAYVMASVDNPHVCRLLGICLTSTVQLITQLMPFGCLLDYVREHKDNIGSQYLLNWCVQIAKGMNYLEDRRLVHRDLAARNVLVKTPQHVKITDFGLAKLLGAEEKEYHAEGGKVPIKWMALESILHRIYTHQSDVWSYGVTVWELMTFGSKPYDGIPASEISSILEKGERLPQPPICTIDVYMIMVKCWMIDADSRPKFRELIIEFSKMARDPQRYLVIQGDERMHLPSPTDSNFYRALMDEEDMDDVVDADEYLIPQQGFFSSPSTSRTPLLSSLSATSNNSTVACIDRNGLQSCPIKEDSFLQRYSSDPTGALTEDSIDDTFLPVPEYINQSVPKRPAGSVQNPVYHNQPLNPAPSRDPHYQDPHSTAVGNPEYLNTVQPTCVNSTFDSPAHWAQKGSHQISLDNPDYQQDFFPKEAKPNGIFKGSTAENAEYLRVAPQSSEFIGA
Sequence of Ba/F3 ERBB2 YVMA (P04626 with tags, fused parts or gaps DUP772-775): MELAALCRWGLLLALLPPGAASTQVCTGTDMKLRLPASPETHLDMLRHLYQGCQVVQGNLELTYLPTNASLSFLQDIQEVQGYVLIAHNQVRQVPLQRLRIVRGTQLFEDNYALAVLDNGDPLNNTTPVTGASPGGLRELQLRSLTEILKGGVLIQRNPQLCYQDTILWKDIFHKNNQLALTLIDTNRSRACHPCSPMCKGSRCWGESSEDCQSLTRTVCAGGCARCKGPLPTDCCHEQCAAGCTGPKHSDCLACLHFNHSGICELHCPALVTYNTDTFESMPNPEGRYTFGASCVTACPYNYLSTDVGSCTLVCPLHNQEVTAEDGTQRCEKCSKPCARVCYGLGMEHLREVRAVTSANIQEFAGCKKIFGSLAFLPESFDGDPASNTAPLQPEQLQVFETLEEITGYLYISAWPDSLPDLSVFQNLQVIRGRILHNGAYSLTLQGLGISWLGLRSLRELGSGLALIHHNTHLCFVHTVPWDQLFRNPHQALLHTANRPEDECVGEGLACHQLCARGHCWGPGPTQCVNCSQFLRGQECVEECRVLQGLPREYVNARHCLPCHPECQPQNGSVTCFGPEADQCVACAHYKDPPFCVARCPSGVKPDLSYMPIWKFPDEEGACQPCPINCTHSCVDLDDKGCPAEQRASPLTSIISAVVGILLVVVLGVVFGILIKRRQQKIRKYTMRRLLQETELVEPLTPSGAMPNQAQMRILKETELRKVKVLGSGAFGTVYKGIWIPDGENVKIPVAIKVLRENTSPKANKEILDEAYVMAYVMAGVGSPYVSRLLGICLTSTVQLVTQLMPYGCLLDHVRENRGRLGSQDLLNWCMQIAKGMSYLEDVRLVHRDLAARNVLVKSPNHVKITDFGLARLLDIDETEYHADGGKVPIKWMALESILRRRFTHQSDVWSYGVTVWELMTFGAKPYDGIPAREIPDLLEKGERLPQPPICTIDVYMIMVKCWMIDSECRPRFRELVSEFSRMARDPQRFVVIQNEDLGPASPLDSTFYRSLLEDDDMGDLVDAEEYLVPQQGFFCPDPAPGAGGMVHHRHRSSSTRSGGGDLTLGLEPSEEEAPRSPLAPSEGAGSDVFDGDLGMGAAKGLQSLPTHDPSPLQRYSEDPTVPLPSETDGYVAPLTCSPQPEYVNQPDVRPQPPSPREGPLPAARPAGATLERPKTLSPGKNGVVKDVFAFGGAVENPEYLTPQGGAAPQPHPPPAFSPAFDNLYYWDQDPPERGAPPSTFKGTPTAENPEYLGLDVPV

Row | Structure (SMILES) | GI50 (Ba/F3 ERBB2 YVMA) [nM] | pIC50 [1] | pIC50 [2]
1 | C=CC(=O)N1CCN(c2ccc3ncnc(Nc4ccc(Oc5ccc6c(c5)ncn6C)c(C)c4)c3c2F)C[C@H]1C [Compound 64, 1-[(2R)-4-[5-fluoro-4-({3-methyl-4-[(1-methyl-1,3-benzodiazol-5-yl)oxy]phenyl}amino)quinazolin-6-yl]-2-methylpiperazin-1-yl]prop-2-en-1-one] | 12.4 | 7.41 | 5.60
2 | C=CC(=O)N1CCN(c2ccc3ncnc(Nc4ccc(Cc5ccn6ncnc6c5)c(C)c4)c3n2)CC1 [Compound 110, 1-(4-(4-((4-([1,2,4]triazolo[1,5-a]pyridin-7-ylmethyl)-3-methylphenyl)amino)pyrido[3,2-d]pyrimidin-6-yl)piperazin-1-yl)prop-2-en-1-one] | 13.3 | 8.01 | 5.51
3 | CC#CC(=O)N1CCN(c2ccc3ncnc(Nc4ccc(Oc5ccc6c(c5)ncn6C)c(C)c4)c3n2)CC1 [Compound 31, 1-{4-[4-({3-methyl-4-[(1-methyl-1,3-benzodiazol-5-yl)oxy]phenyl}amino)pyrido[3,2-d]pyrimidin-6-yl]piperazin-1-yl}but-2-yn-1-one] | 6.56 | 7.54 | 5.12
4 | CC#CC(=O)N1CCN(c2ccc3ncnc(Nc4ccc(Oc5ccc6c(c5)ncn6C)c(C)c4)c3n2)C[C@H]1C [Compound 65, 1-[(2R)-2-methyl-4-[4-({3-methyl-4-[(1-methyl-1,3-benzodiazol-5-yl)oxy]phenyl}amino)pyrido[3,2-d]pyrimidin-6-yl]piperazin-1-yl]but-2-yn-1-one] | 4.38 | 7.53 | 5.55
5 | C=CC(=O)N1CCN(c2cc3c(Nc4ccc(Oc5ccc6c(c5)ncn6C)c(C)c4)ncnc3cn2)[C@@H](C)C1 [Compound 107, 1-[(3S)-3-methyl-4-[4-({3-methyl-4-[(1-methyl-1,3-benzodiazol-5-yl)oxy]phenyl}amino)pyrido[3,4-d]pyrimidin-6-yl]piperazin-1-yl]prop-2-en-1-one] | 73.4 | 7.66 | 5.54
6 | C=CC(=O)N1CCN(c2ccc3ncnc(Nc4ccc(Cc5ccn6ncnc6c5)c(C)c4)c3c2)CC1 [Compound 81, 1-(4-(4-((4-([1,2,4]triazolo[1,5-a]pyridin-7-ylmethyl)-3-methylphenyl)amino)quinazolin-6-yl)piperazin-1-yl)prop-2-en-1-one] | 17.8 | 7.96 | 5.63
7 | CC#CC(=O)N1CCN(c2ccc3ncnc(Nc4ccc(Oc5ccn6ncnc6c5)c(C)c4)c3n2)C[C@H]1C [Compound 23, 1-[(2R)-2-methyl-4-{4-[(3-methyl-4-{[1,2,4]triazolo[1,5-a]pyridin-7-yloxy}phenyl)amino]pyrido[3,2-d]pyrimidin-6-yl}piperazin-1-yl]but-2-yn-1-one] | 7.17 | 7.60 | 6.28
8 | C=CC(=O)N1CC[C@H](Oc2ccc3ncnc(Nc4ccc(Oc5ccc6c(c5)ncn6C)c(C)c4)c3n2)C1 [Compound 49, 1-[(3S)-3-{[4-({3-methyl-4-[(1-methyl-1,3-benzodiazol-5-yl)oxy]phenyl}amino)pyrido[3,2-d]pyrimidin-6-yl]oxy}pyrrolidin-1-yl]prop-2-en-1-one] | 15.7 | 7.24 | 6.46
9 | CC#CC(=O)N1CCN(c2ccc3ncnc(Nc4ccc(Oc5ccn6ncnc6c5)c(C)c4)c3n2)C[C@@H]1C [Compound 22, 1-[(2S)-2-methyl-4-{4-[(3-methyl-4-{[1,2,4]triazolo[1,5-a]pyridin-7-yloxy}phenyl)amino]pyrido[3,2-d]pyrimidin-6-yl}piperazin-1-yl]but-2-yn-1-one] | 34.9 | 7.20 | < 5.00
10 | CC#CC(=O)N1CC2CCC(C1)N2c1ccc2ncnc(Nc3ccc(Oc4ccc5c(c4)ncn5C)c(C)c3)c2n1 [Compound 75, 1-(8-(4-((3-methyl-4-((1-methyl-1H-benzo[d]imidazol-5-yl)oxy)phenyl)amino)pyrido[3,2-d]pyrimidin-6-yl)-3,8-diazabicyclo[3.2.1]octan-3-yl)but-2-yn-1-one] | 8.19 | 7.37 | 5.39

From US20250136595A1, “ACYLATED HETEROCYCLIC QUINAZOLINE DERIVATIVES AS INHIBITORS OF ERBB2” (Enliven Inc., priority 2022, published 2025)
